Patent US20160313301A1, “METHOD FOR PREDICTING ANTITUMOR EFFICACY OF HSP90 INHIBITOR IN CANCER TREATMENT” (NIPPON KAYAKU KABUSHIKI KAISHA, priority 2013, published 2016)

Test system: client proteins and HSP90-related proteins in SK-OV-3 tumor
Assay: Immunoblot: change in expression amount of proteins in SK-OV-3 tumor after administration
Type: in vivo, human
Details: 40 mg/kg tail vein
Procedure: Thirty micrograms of total protein was subjected to electrophoresis in 8% acrylamide gel. Then, the protein was transferred onto a PVDF membrane at a voltage of 100 V for 60 min at 4 °C. The PVDF membrane on which the protein had been transferred was blocked in TBS-Tween (0.1%) containing 5% milk at normal temperature for 60 min, followed by incubating with each of primary antibodies described below overnight at 4 °C. • Primary antibody (supplier, product number, dilution ratio, exposure time) • EGFR (Santa Cruz, sc-003, 1:500, 1 min) • HER2 (Santa Cruz, sc-284, 1:2000, 5 sec) • HER3 (Santa Cruz, sc-285, 1:400, 1 min) • Met (Santa Cruz, sc-161, 1:500, 5 min) • IGF-1R (Cell Signaling, #3027, 1:500, 15 sec) • Raf-1 (Santa Cruz, sc-133, 1:300, 5 min) • Stat3 (BD Transduction Laboratory, 610189, 1:500, 15 sec) • pAkt (Cell Signaling, #4058S, 1:500, 1 min) • Akt (Cell Signaling, #4691S, 1:2000, 15 sec) • pERK (Santa Cruz, sc-16982-R, 1:500, 1 min) • ERK (Invitrogen, 44-654G, 1:1000, 15 sec) • mTOR (Cell Signaling, #2983S, 1:500, 15 sec) • MEK (Cell Signaling, #9122S, 1:500, 1 min) • HSP90 (Enzo Life Science, SPA-830, 1:500, 15 sec) • HSP70 (Enzo Life Science, SPA-810, 1:2000, 15 sec) • Actin (Santa Cruz, sc-8432/HRP, 1:300, 5 min)
After incubation, the blot membrane was washed with TBS-Tween (0.1%) at normal temperature for 10 min three times to thereby remove excessive primary antibodies. Then, the membrane was incubated with an appropriate secondary antibody (anti-rabbit IgG HRP conjugate or anti-mouse IgG HRP conjugate) at normal temperature for 60 min. The membrane was washed with TBS-Tween (0.1%) at normal temperature for 10 min three times to thereby remove excessive secondary antibodies. Then, the membrane was incubated with ECL Western Blotting Detection Reagents (GE Healthcare) for 2 min, followed by exposing to an X-ray film. Thus, the signal of the intended protein was detected.
Tumors to be transplanted derived from human ovarian cancer cell lines SK-OV-3 and TOV-21G were prepared in the same manner as in Example 1.
Protein extraction liquid was obtained from each tumor as follows. The human ovarian cancer tumors maintained by passage in SCID mice were transplanted subcutaneously to the dorsums of SCID mice with trocars. When the tumor volume of each tumor reached about 300 mm^3, the triazole (A-1) synthesized as the HSP90 inhibitor in Synthetic Example 1 was administered into a tail vein of each of the mice at a dose of 40 mg/kg in the same manner as in Example 1. The tumors were removed before and 4 and 24 hours after administration. At each time point, the tumors were removed from three mice for the SK-OV-3 tumor and two mice for the TOV-21G tumor. Protein extraction liquids were obtained in the same manner as in Example 1. The total protein amount in each of the extraction liquids was quantified in the same manner as in Example 1.
The immunoblot method was used to verify change in expression amounts of the client proteins and the HSP90-related proteins in the SK-OV-3 and TOV-21G tumors to which the triazole compound (A-1) had been administered, in the same manner as in Example 1. The types and dilution ratios of primary antibodies and secondary antibodies used were the same as in Example 1.

[1] = SK-OV-3 tumor after administration
[2] = SK-OV-3 tumor, 4 hours after administration

`CC(C)c1cc(-c2n[nH]c(=O)n2-c2ccc(CN3CCN(C)CC3)cc2)c(O)cc1O` [A-1, 5-(2,4-dihydroxy-5-isopropyl-phenyl)-4-[4-(4-methyl-piperazin-1-ylmethyl)-phenyl]-2,4-dihydro-[1,2,4]triazol-3-one] was tested, and the “expression amount of total Akt” value [1] was “not changed”, the “expression amount of total ERK” value [1] was “not changed” and the “expression level of EGFR” value [2] was “significantly decreased”. For the same molecule, the “expression level of IGF-1R” value [2] was “significantly decreased”, the “expression level of Met” value [2] was “significantly decreased” and the “expression level of mTOR” value [2] was “significantly decreased”. The “expression level of pAkt” value [2] was “significantly decreased” and the “expression level of pERK” value [2] was “significantly decreased”.
